From publication PMC8318231, “Rate-of-Kill (RoK) assays to triage large compound sets for Chagas disease drug discovery: Application to GSK Chagas Box” (PLoS Neglected Tropical Diseases, 2021)

Experiments:
[1] = test system: T. cruzi Tulahuen trypomastigotes; assay: T. cruzi trypomastigote assay (Cell Titer-Glo viability, ATP luminescence); assay type: cell-based, Trypanosoma cruzi; conditions: for Trypomastigotes pIC50 72 hours: 72 hours incubation; for Trypomastigotes pIC50 72 hours / Trypomastigotes pIC50 48 hours: pIC50 = -log10 IC50 in molar units; for Trypomastigotes pIC50 48 hours: 48 hours incubation; for 48 pIC50 / 72 pIC50: trypomastigote assay; for 48 pIC50: 48 h; for 72 pIC50: 72 h
Protocol: T. cruzi Tulahuen trypomastigotes obtained from the supernatants of LLC-MK2 infected cultures in a 225 cm^2 T-Flasks harvested between days 5 and 8 of infection. Trypomastigotes (5 × 10^4 per well) in 50 μl of DMEM/ 2% FBS were dispensed into white 384 plates (Greiner) pre-stamped with 250 nl compound a single-shot final concentration of 5 μM, or in dose response. […] Cell Titer-Glo cell viability solution (Promega) was added to each well (50 μL) incubated at room temperature for 10 min and luminescence read by Envision plate reader (Perkin Elmer). This assay quantifies the amount of ATP present which is directly proportional to the number of metabolically active cells. All data were normalised (100% effect control for no cells and 0% effect control for DMSO). This assay was adapted from MacLean et al., 2018 [22].

[2] = test system: TcCYP51; conditions: formerly reported; cited from earlier work

SMILES	Trypomastigotes pIC50 72 hours [1]	CYP51 pIC50 [2]	Trypomastigotes pIC50 48 hours [1]	48 pIC50 ([1]; figure 1A)	72 pIC50 ([1]; figure 1A)	72 pIC50 ([1]; figure 1B)
CC(C(=O)Nc1ccccc1F)N(C)CC(=O)Nc1cccc2ccccc12 (stereo not shown) [TCMDC-143293]	< 4.3	4.8				
O=C(c1cc2cc(Cl)ccc2[nH]1)N1CCCCC1c1cccnc1 (stereo not shown) [TCMDC-143159]	4.4	7.2	4.5			
COc1ccc(-c2cc(C)no2)cc1S(=O)(=O)Nc1ccc(F)c(Cl)c1 [TCMDC-143193]	4.4	< 4	4.8			
Cc1ccc(NC(=O)C(C)n2nc([N+](=O)[O-])c(Br)c2C)cc1Cl (stereo not shown) [TCMDC-143338]	5.3	< 4	5.5			
Cc1ccc(C)c(-n2nnnc2Sc2nc([N+](=O)[O-])nn2C)c1 [TCMDC-143530]	5.4	< 4	5.3			
Cc1cc(C#N)c([N+](=O)[O-])cc1Br [TCMDC-143541]	5.5	5.1	5.8			
O=[N+]([O-])c1cccc(Nc2cncc(-c3ccccc3CO)c2)c1 [TCMDC-143559]	< 4.3	5.5	< 4.3	< 4.3	< 4.3	< 4.3
Clc1ccc(CN2CCN(C3=NCCN3)CC2)cc1Cl.I.I [TCMDC-143605]	5.3	< 4	5.6			
COc1ccc2ncc(F)c(NC(=O)[C@]3(O)CC[C@@H](NCc4ccc5c(c4)OCCO5)CC3)c2n1.Cl [TCMDC-143507]	4.4	4.2	4.4	4.4	4.4	4.4
Clc1ccc(OCCN2CCCCC2c2cccnc2)c(Cl)c1 (stereo not shown) [TCMDC-143235]	4.4	7.2	4.4	4.4	4.4	4.4
COc1ccc(-c2ccc3nnc(-c4ccc(O)c(OC)c4)n3c2)cn1 [TCMDC-143413]	< 4.3	< 4	< 4.3	< 4.3	< 4.3	< 4.3
O=c1ccn(-c2ccc([N+](=O)[O-])cc2Cl)c2ccc(F)cc12 [TCMDC-143520]	< 4.3	4.8	< 4.3	< 4.3	< 4.3	< 4.3
COc1ccccc1C=CCN1C[C@H]2CCC[C@@H](C1)C2(O)c1cccnc1 (stereo partly shown) [TCMDC-143309]	4.5	6.9	< 4.3			
COc1ccc(CN2CCCCC2c2nc(-c3cccnc3)no2)cc1 (stereo not shown) [TCMDC-143467]	< 4.3	6.7	< 4.3	< 4.3	< 4.3	< 4.3
CC(C)Oc1ccc(C(=O)Nc2ccc(N3CCOCC3)c(Cl)c2)cc1 [TCMDC-143592]	< 4.3	< 4	< 4.3	< 4.3	< 4.3	< 4.3
CNc1cncc(C2CCCN2C(=O)Cc2coc3cc(C)ccc23)n1 (stereo not shown) [TCMDC-143464]	< 4.3	7.6	< 4.3	< 4.3	< 4.3	< 4.3
O=C(Nc1nc(-c2ccc(S(=O)(=O)N3CCOCC3)cc2)cs1)c1ccc([N+](=O)[O-])cc1 [TCMDC-143282]	5.8	< 4	5.8	5.8	5.8	5.8
CC(=O)Nc1ccc(-c2csc(NC(=O)c3ccc([N+](=O)[O-])s3)n2)cc1 [TCMDC-143164]	6.6	5.2	6.4			
O=C(Nc1ccc(C(=O)N2CCCC2c2ccc3c(c2)OCCCO3)cc1)c1ccco1 (stereo not shown) [TCMDC-143198]		4.2				
CN(Cc1ccccc1)Cc1nnnn1C1CCN(Cc2ccc(-n3ccnc3)cc2)CC1 [TCMDC-143322]		7.3				
